The results in this text go back to ChEMBL document CHEMBL4052736, “Synthesis, antioxidant, antifungal, molecular docking and ADMET studies of some thiazolyl hydrazones” (Bioorg Med Chem Lett, 2017).

Holding throughout (assay type): functional
Assay [1] deals with Aspergillus niger. The assay can be described thus: Antifungal activity against Aspergillus niger after 24 hrs by well diffusion method.
The subject of assay [2] is Candida albicans. As to the kind of experiment: Antifungal activity against Candida albicans after 24 hrs by well diffusion method.
Assay [3] concerns Aspergillus flavus. The assay can be described thus: Antifungal activity against Aspergillus flavus assessed as zone of inhibition at 25 ug/ml measured after 24 hrs by well diffusion method. Conditions: read-out: IZ.
Assay [4] deals with Aspergillus flavus. The assay can be described thus: Antifungal activity against Aspergillus flavus assessed as zone of inhibition at 50 ug/ml measured after 24 hrs by well diffusion method. Particulars: read-out: IZ.
The nature of assay [5]: Antioxidant activity assessed as DPPH free radical scavenging activity at 20 ug/ml after 15 mins by spectrophotometric method.
A short description of assay [6]: Antioxidant activity assessed as DPPH free radical scavenging activity at 40 ug/ml after 15 mins by spectrophotometric method.
Assay [7] can be described thus: Antioxidant activity assessed as DPPH free radical scavenging activity at 60 ug/ml after 15 mins by spectrophotometric method.
Assay [8] is described as follows: Antioxidant activity assessed as DPPH free radical scavenging activity at 80 ug/ml after 15 mins by spectrophotometric method.
The nature of assay [9]: Antioxidant activity assessed as DPPH free radical scavenging activity at 100 ug/ml after 15 mins by spectrophotometric method.
Assay [10] can be described thus: Antioxidant activity assessed as DPPH free radical scavenging activity measured after 15 mins by spectrophotometric method.
Assay [11] can be described thus: Antioxidant activity assessed as H2O2 free radical scavenging activity at 20 ug/ml after 10 to 15 mins by spectrophotometric analysis.
The nature of assay [12]: Antioxidant activity assessed as H2O2 free radical scavenging activity at 40 ug/ml after 10 to 15 mins by spectrophotometric analysis.
The nature of assay [13]: Antioxidant activity assessed as H2O2 free radical scavenging activity at 60 ug/ml after 10 to 15 mins by spectrophotometric analysis.
The nature of assay [14]: Antioxidant activity assessed as H2O2 free radical scavenging activity at 80 ug/ml after 10 to 15 mins by spectrophotometric analysis.
Assay [15] in a line: Antioxidant activity assessed as H2O2 free radical scavenging activity at 100 ug/ml after 10 to 15 mins by spectrophotometric analysis.
A short description of assay [16]: Antioxidant activity assessed as H2O2 free radical scavenging activity by spectrophotometric analysis.
In assay [17] the test system is Aspergillus niger. As to the kind of experiment: Antifungal activity against Aspergillus niger assessed as zone of inhibition at 25 ug/ml measured after 24 hrs by well diffusion method. Particulars: read-out: IZ.
Assay [18] has as its system Aspergillus niger. The assay can be described thus: Antifungal activity against Aspergillus niger assessed as zone of inhibition at 50 ug/ml measured after 24 hrs by well diffusion method. Particulars: read-out: IZ.
The subject of assay [19] is Aspergillus niger. The assay can be described thus: Antifungal activity against Aspergillus niger assessed as zone of inhibition at 100 ug/ml measured after 24 hrs by well diffusion method. Particulars: read-out: IZ.
The subject of assay [20] is Candida albicans. The assay can be described thus: Antifungal activity against Candida albicans assessed as zone of inhibition at 100 ug/ml measured after 24 hrs by well diffusion method. Conditions: read-out: IZ.
The test system of assay [21] is Candida albicans. The assay can be described thus: Antifungal activity against Candida albicans assessed as zone of inhibition at 50 ug/ml measured after 24 hrs by well diffusion method. Particulars: read-out: IZ.
Assay [22] concerns Candida albicans. The assay can be described thus: Antifungal activity against Candida albicans assessed as zone of inhibition at 25 ug/ml measured after 24 hrs by well diffusion method. Conditions: read-out: IZ.
In assay [23] the test system is Aspergillus flavus. As to the kind of experiment: Antifungal activity against Aspergillus flavus assessed as zone of inhibition at 100 ug/ml measured after 24 hrs by well diffusion method. Conditions: read-out: IZ.
In assay [24] the test system is Aspergillus flavus. As to the kind of experiment: Antifungal activity against Aspergillus flavus after 24 hrs by well diffusion method.

Converted amounts (≈) assume the structure as drawn.

Regarding `C(=N\Nc1nc(-c2ccccc2)cs1)/c1cccs1`, the MIC was 25 mg/L (≈ 87.6 µM) in assay [1] and 12.5 mg/L (≈ 43.8 µM) in assay [2]. The zone of inhibition at 25 µg/mL in assay [3] was determined as 8 mm; in [17] it was 6 mm; in assay [22] it was 6 mm. Further, the values for the zone of inhibition at 50 µg/mL in assay [4], in assay [18] and in [21] were 12 mm, 8 mm and 10 mm, respectively. The inhibition in assay [5] stood at 95.5%; in assay [6] it was 95.8%; in assay [7], 97.6%; in assay [8], 97.1%; in assay [9], 96.8%; in assay [11], 87.5%. Further, the inhibition in assay [12] is 90%; in assay [13], 91%; in assay [14], 92.4%; in assay [15] it was 94%. For the same compound, the figures for the concentration for half-maximal inhibition (IC50) in assay [10] and in assay [16] were 26.008 mg/L (≈ 91.1 µM) and 31.03 mg/L (≈ 109 µM), respectively. The results for the zone of inhibition at 100 µg/mL in [19], in [20] and in assay [23] were 10 mm, 12 mm and 15 mm, respectively.
As for `Clc1ccc(-c2csc(N/N=C/c3ccc(Cl)cc3Cl)n2)cc1`, the minimal inhibitory concentration (MIC) was found to be 6.25 mg/L (≈ 16.3 µM) in assay [24], 6.12 mg/L (≈ 16 µM) in assay [1] and 3.12 mg/L (≈ 8.15 µM) in assay [2]. The zone of inhibition at 25 µg/mL in assay [3] amounted to 12 mm; in assay [17] it was 12 mm; in [22] it was 10 mm. For the same compound, the zone of inhibition at 50 µg/mL in assay [4] was 15 mm; in assay [18], 13 mm; in assay [21], 15 mm. The inhibition was 73.9% in assay [5]; 85.9% in [6]; 88.9% in assay [7]; 92.3% in assay [8]; 92.4% in assay [9]; 76% in assay [11]. Moreover, the inhibition turned out to be 76.2% in assay [12], 80.4% in [13], 83.1% in assay [14] and 84.4% in assay [15]. The IC50 in assay [10] was determined as 32.224 mg/L (≈ 84.2 µM); in assay [16] it was 43.537 mg/L (≈ 114 µM). Also, the results for the zone of inhibition at 100 µg/mL in assay [19], in [20] and in assay [23] were 17 mm, 18 mm and 16 mm, respectively.
As to `Clc1ccc(/C=N/Nc2nc(-c3ccccc3)cs2)c(Cl)c1`, the MIC in assay [24] was under 3.12 mg/L; in [1], 12.5 mg/L (≈ 35.9 µM); in assay [2] it was 3.12 mg/L (≈ 8.96 µM). The zone of inhibition at 25 µg/mL in assay [3] turned out to be 12 mm; in assay [17], 8 mm; in assay [22], 12 mm. Moreover, the figures for the zone of inhibition at 50 µg/mL in assay [4], in assay [18] and in assay [21] were 15 mm, 10 mm and 14 mm, respectively. For the same compound, the inhibition worked out at 76.6% in assay [5]; 90.2% in [6]; 92.8% in assay [7]; 92.6% in assay [8]; 95.8% in assay [9]; 78.1% in assay [11]. For the same compound, the inhibition in assay [12] was found to be 78.9%; in assay [13], 80.4%; in assay [14], 83.1%; in [15] it was 87.4%. Besides, the figures for the IC50 in [10] and in assay [16] were 29.307 mg/L (≈ 84.2 µM) and 43.712 mg/L (≈ 126 µM), respectively. The zone of inhibition at 100 µg/mL in [19] is 11 mm; in assay [20], 15 mm; in assay [23] it was 25 mm.
In the case of `OC(Cn1cncn1)(Cn1cncn1)c1ccc(F)cc1F` [FLUCONAZOLE], the minimum inhibitory concentration (MIC) in [24], in [1] and in assay [2] was under 3.12 mg/L throughout. Also, the values for the zone of inhibition at 25 µg/mL in [3], in assay [17] and in assay [22] were 15 mm, 14 mm and 15 mm, respectively. For the same compound, the zone of inhibition at 50 µg/mL in assay [4] was 18 mm; in [18], 20 mm; in assay [21], 22 mm. In addition, the zone of inhibition at 100 µg/mL in [19] worked out at 25 mm; in [20], 28 mm; in assay [23], 20 mm.
Consider `Fc1ccc(-c2csc(N/N=C/c3cccs3)n2)cc1`, for which the minimum inhibitory concentration (MIC) in [1] came to 25 mg/L (≈ 82.4 µM); in assay [2], 6.25 mg/L (≈ 20.6 µM). Besides, the zone of inhibition at 25 µg/mL in [3] worked out at 6 mm; in assay [17], 6 mm; in assay [22], 12 mm. Further, the zone of inhibition at 50 µg/mL turned out to be 6 mm in assay [4], 10 mm in assay [18] and 14 mm in [21]. Further, the inhibition in assay [5] was found to be 92.4%; in assay [6], 93.3%; in [7] it was 94.6%; in assay [8], 66.3%; in assay [9], 97%; in [11] it was 84.2%. For the same compound, the inhibition in assay [12] amounted to 87.5%; in assay [13], 90.3%; in [14], 91.9%; in assay [15], 92.4%. For the same compound, the IC50 in [10] was 44.12 mg/L (≈ 145 µM); in assay [16], 35.206 mg/L (≈ 116 µM). Besides, the zone of inhibition at 100 µg/mL in [19] was 13 mm; in [20], 15 mm; in assay [23], 6 mm.
`Fc1ccc(-c2csc(N/N=C/c3ccc(Cl)cc3Cl)n2)cc1`: the minimum inhibitory concentration (MIC) in assay [24] came out at 12.5 mg/L (≈ 34.1 µM); in assay [2] it was 6.25 mg/L (≈ 17.1 µM). In addition, the zone of inhibition at 25 µg/mL in assay [3] was 8 mm; in assay [17] it was 6 mm; in assay [22] it was 10 mm. The results for the zone of inhibition at 50 µg/mL in assay [4], in [18] and in assay [21] were 10 mm, 6 mm and 11 mm, respectively. Further, the inhibition in assay [5] was 90.7%; in assay [6], 93.3%; in [7] it was 94.6%; in assay [8], 95.5%; in [9], 96%; in [11], 88.4%. The inhibition was 90% in assay [12], 92.4% in assay [13], 94% in assay [14] and 95.6% in assay [15]. The half-maximal inhibitory concentration (IC50) in assay [10] was 27.139 mg/L (≈ 74.1 µM); in [16], 35.539 mg/L (≈ 97 µM). Moreover, the zone of inhibition at 100 µg/mL in [19] is 6 mm; in assay [20], 13 mm; in assay [23] it was 12 mm.
